Columns and labels:
Format in all cases: cell-based
Enterobacter cloacae = test: MIC against Gram-negative bacteria: Enterobacter cloacae; conditions: for MIC against E. cloacae / MIC E. cloacae / MIC (μg/mL) E. cloacae: 5×10^5 CFU/mL
How it was run: (§1)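 Broth microdilution, LB medium, final inoculum 5×10^5 CFU/mL from McFarland 0.5 cultures. Recombinant human EGF domain proteins tested in two-fold steps, n=3. MIC: lowest concentration, no growth.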

E. coli BL21 = test: MIC against Gram-negative bacteria: E. coli BL21; conditions: for MIC against E. coli BL21 / MIC E. coli BL21 / MIC (μg/mL) E. coli BL21: 5×10^5 CFU/mL
How it was run: as §1

Aeromonas hydrophila = test: MIC against Gram-negative bacteria: Aeromonas hydrophila; conditions: for MIC against A. hydrophila / MIC A. hydrophila / MIC (μg/mL) A. hydrophila: 5×10^5 CFU/mL
How it was run: as §1

Proteus mirabilis = test: MIC against Gram-negative bacteria: Proteus mirabilis; conditions: for MIC against P. mirabilis / MIC P. mirabilis / MIC (μg/mL) P. mirabilis: 5×10^5 CFU/mL
How it was run: as §1

E. coli DH5α = test: Antibacterial activity: MIC and growth curve against E. coli DH5α in 96-well plate; conditions: minimal inhibitory concentration against E. coli DH5α; 96-well plate, 5×10^5 CFU/mL, 37° C., judged after 8 h
How it was run: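 MIC taken as lowest protein level with no bacterial growth, tracked by A600 every 30 min during 37 °C, 175 rpm culture. Two-fold protein series 50-12.5 μg/mL final, triplicate wells, against 5×10^5 CFU/mL of LB-washed mid-log cells.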

Citrobacter diversus = test: MIC against Gram-negative bacteria: Citrobacter diversus; conditions: for MIC against C. diversus / MIC C. diversus / MIC (μg/mL) C. diversus: 5×10^5 CFU/mL
How it was run: as §1

Moraxella catarrhalis = test: MIC against Gram-negative bacteria: Moraxella catarrhalis; conditions: for MIC against M. catarrhalis / MIC M. catarrhalis / MIC (μg/mL) M. catarrhalis: 5×10^5 CFU/mL
How it was run: as §1

Klebsiella pneumonia = test: MIC against Gram-negative bacteria: Klebsiella pneumonia; conditions: for MIC against K. pneumonia / MIC K. pneumonia / MIC (μg/mL) K. pneumonia: 5×10^5 CFU/mL
How it was run: as §1

Proteus vulgaris = test: MIC against Gram-negative bacteria: Proteus vulgaris; conditions: for MIC against P. vulgaris / MIC P. vulgaris / MIC (μg/mL) P. vulgaris: 5×10^5 CFU/mL
How it was run: as §1

Pseudomonas aeruginosa = test: MIC against Gram-negative bacteria: Pseudomonas aeruginosa; conditions: for MIC against P. aeruginosa / MIC P. aeruginosa / MIC (μg/mL) P. aeruginosa: 5×10^5 CFU/mL
How it was run: as §1

Serratia marcescens = test: MIC against Gram-negative bacteria: Serratia marcescens; conditions: for MIC against S. marcescens / MIC S. marcescens / MIC (μg/mL) S. marcescens: 5×10^5 CFU/mL
How it was run: as §1

[1] = Enterobacter cloacae, 96-well plate, 37° C., 10 h
[2] = E. coli BL21, 96-well plate, 37° C., 10 h
[3] = Aeromonas hydrophila, 96-well plate, 37° C., 10 h
[4] = Proteus mirabilis, 96-well plate, 37° C., 10 h
[5] = Citrobacter diversus, 96-well plate, 37° C., 10 h
[6] = Moraxella catarrhalis, 96-well plate, 37° C., 10 h
[7] = Klebsiella pneumonia, 96-well plate, 37° C., 10 h
[8] = Proteus vulgaris, 96-well plate, 37° C., 10 h
[9] = Pseudomonas aeruginosa, 96-well plate, 37° C., 10 h
[10] = Serratia marcescens, 96-well plate, 37° C., 10 h
[11] = 10 h cultivation at 37° C., two-fold serial dilution
[12] = E. coli BL21, 10 h cultivation at 37° C.
[13] = E. cloacae, 10 h cultivation at 37° C.
[14] = A. hydrophila, 10 h cultivation at 37° C.
[15] = P. mirabilis, 10 h cultivation at 37° C.
[16] = C. diversus, 10 h cultivation at 37° C.
[17] = M. catarrhalis, 10 h cultivation at 37° C.
[18] = K. pneumonia, 10 h cultivation at 37° C.
[19] = P. vulgaris, 10 h cultivation at 37° C.
[20] = P. aeruginosa, 10 h cultivation at 37° C.
[21] = S. marcescens, 10 h cultivation at 37° C.

Q: For “PRT1326 (AINACEISNGGCSAKADCKRTTPGRRVCTCKAGYTGDGIVCL; listed as Homo sapiens)”, which “MIC against E. cloacae” value (Enterobacter cloacae; [1]) is on record?
A: 50 µg/mL

Q: What about the “MIC against E. coli BL21” value (E. coli BL21; [2]) of the same substance?
A: 12.5 µg/mL

Q: And the “MIC against A. hydrophila” value (Aeromonas hydrophila; [3])?
A: 12.5 µg/mL

Q: And the “MIC against P. mirabilis” value (Proteus mirabilis; [4])?
A: 12.5 µg/mL

Q: And the MIC (E. coli DH5α)?
A: 50 µg/mL

Q: And the “MIC against C. diversus” value (Citrobacter diversus; [5])?
A: 50 µg/mL

Q: And the “MIC against M. catarrhalis” value (Moraxella catarrhalis; [6])?
A: 25 µg/mL

Q: What about the “MIC against K. pneumonia” value (Klebsiella pneumonia; [7]) of the same substance?
A: 12.5 µg/mL

Q: What about the “MIC against P. vulgaris” value (Proteus vulgaris; [8]) of the same substance?
A: 25 µg/mL

Q: And the “MIC against P. aeruginosa” value (Pseudomonas aeruginosa; [9])?
A: 50 µg/mL

Q: What about the “MIC against S. marcescens” value (Serratia marcescens; [10]) of the same substance?
A: 50 µg/mL

Q: Which results are given for “PRT1051 (EQKLCKLRKGNCSSTVCGQDLQSHLCMCAEGYALSRDRKYCE; listed as Homo sapiens)”?
A: MIC E. cloacae (Enterobacter cloacae; [11]): 25 µg/mL; MIC E. coli BL21 (E. coli BL21; [11]): 12.5 µg/mL; MIC A. hydrophila (Aeromonas hydrophila; [11]): 12.5 µg/mL; MIC P. mirabilis (Proteus mirabilis; [11]): 50 µg/mL; MIC (E. coli DH5α): 50 µg/mL; MIC C. diversus (Citrobacter diversus; [11]): 12.5 µg/mL; MIC M. catarrhalis (Moraxella catarrhalis; [11]): 12.5 µg/mL; MIC K. pneumonia (Klebsiella pneumonia; [11]): 12.5 µg/mL; MIC P. vulgaris (Proteus vulgaris; [11]): 12.5 µg/mL; MIC P. aeruginosa (Pseudomonas aeruginosa; [11]): 25 µg/mL; MIC S. marcescens (Serratia marcescens; [11]): 50 µg/mL

Q: For “PRT1395 (DCPRNCHGNGECVSGVCHCFPGFLGADCA; listed as Homo sapiens)”, which “MIC against E. cloacae” value (Enterobacter cloacae; Enterobacter cloacae, 10 h cultivation at 37° C.) is on record?
A: 12.5 µg/mL

Q: What about the “MIC against E. coli BL21” value (E. coli BL21; [12]) of the same substance?
A: 25 µg/mL

Q: What about the “MIC against A. hydrophila” value (Aeromonas hydrophila; Aeromonas hydrophila, 10 h cultivation at 37° C.) of the same substance?
A: 100 µg/mL

Q: And the “MIC against P. mirabilis” value (Proteus mirabilis; Proteus mirabilis, 10 h cultivation at 37° C.)?
A: 12.5 µg/mL

Q: And the MIC (E. coli DH5α)?
A: 12.5 µg/mL

Q: What about the “MIC against C. diversus” value (Citrobacter diversus; Citrobacter diversus, 10 h cultivation at 37° C.) of the same substance?
A: 12.5 µg/mL

Q: And the “MIC against M. catarrhalis” value (Moraxella catarrhalis; Moraxella catarrhalis, 10 h cultivation at 37° C.)?
A: 12.5 µg/mL

Q: And the “MIC against K. pneumonia” value (Klebsiella pneumonia; Klebsiella pneumonia, 10 h cultivation at 37° C.)?
A: 25 µg/mL

Q: What about the “MIC against P. vulgaris” value (Proteus vulgaris; Proteus vulgaris, 10 h cultivation at 37° C.) of the same substance?
A: 12.5 µg/mL

Q: What about the “MIC against P. aeruginosa” value (Pseudomonas aeruginosa; Pseudomonas aeruginosa, 10 h cultivation at 37° C.) of the same substance?
A: 12.5 µg/mL

Q: What about the “MIC against S. marcescens” value (Serratia marcescens; Serratia marcescens, 10 h cultivation at 37° C.) of the same substance?
A: 25 µg/mL

Q: Which “MIC E. cloacae” value (Enterobacter cloacae; 96-well plate, 37° C., 10 h) does the source give for “PRT612 (CPCPGGSSCAVVPKTKEVVCTNCPTGTTGKRCELCDDGYFGDPLGRNGPVRLCRL; listed as Homo sapiens)” here?
A: 25 µg/mL

Q: And the “MIC E. coli BL21” value (E. coli BL21; 96-well plate, 37° C., 10 h)?
A: 12.5 µg/mL

Q: What about the “MIC A. hydrophila” value (Aeromonas hydrophila; 96-well plate, 37° C., 10 h) of the same substance?
A: 12.5 µg/mL

Q: And the “MIC P. mirabilis” value (Proteus mirabilis; 96-well plate, 37° C., 10 h)?
A: 25 µg/mL

Q: And the MIC (E. coli DH5α)?
A: 25 µg/mL

Q: And the “MIC C. diversus” value (Citrobacter diversus; 96-well plate, 37° C., 10 h)?
A: 25 µg/mL

Q: What about the “MIC M. catarrhalis” value (Moraxella catarrhalis; 96-well plate, 37° C., 10 h) of the same substance?
A: 50 µg/mL

Q: And the “MIC K. pneumonia” value (Klebsiella pneumonia; 96-well plate, 37° C., 10 h)?
A: 50 µg/mL

Q: And the “MIC P. vulgaris” value (Proteus vulgaris; 96-well plate, 37° C., 10 h)?
A: 12.5 µg/mL

Q: And the “MIC P. aeruginosa” value (Pseudomonas aeruginosa; 96-well plate, 37° C., 10 h)?
A: 25 µg/mL

Q: And the “MIC S. marcescens” value (Serratia marcescens; 96-well plate, 37° C., 10 h)?
A: 25 µg/mL

Q: “PRT798 (FGQDCAQLCSCANNGTCSPIDGSCQCFPGWIGKDCS; listed as Homo sapiens)” was tested. Which “MIC (μg/mL) E. cloacae” value (Enterobacter cloacae; [13]) did it give?
A: 12.5 µg/mL

Q: What about the “MIC (μg/mL) E. coli BL21” value (E. coli BL21; [12]) of the same substance?
A: 25 µg/mL

Q: What about the “MIC (μg/mL) A. hydrophila” value (Aeromonas hydrophila; [14]) of the same substance?
A: 50 µg/mL

Q: And the “MIC (μg/mL) P. mirabilis” value (Proteus mirabilis; [15])?
A: 12.5 µg/mL

Q: And the MIC (E. coli DH5α)?
A: 12.5 µg/mL

Q: And the “MIC (μg/mL) C. diversus” value (Citrobacter diversus; [16])?
A: 12.5 µg/mL

Q: And the “MIC (μg/mL) M. catarrhalis” value (Moraxella catarrhalis; [17])?
A: 50 µg/mL

Q: What about the “MIC (μg/mL) K. pneumonia” value (Klebsiella pneumonia; [18]) of the same substance?
A: 50 µg/mL

Q: What about the “MIC (μg/mL) P. vulgaris” value (Proteus vulgaris; [19]) of the same substance?
A: 50 µg/mL

Q: And the “MIC (μg/mL) P. aeruginosa” value (Pseudomonas aeruginosa; [20])?
A: 12.5 µg/mL

Q: What about the “MIC (μg/mL) S. marcescens” value (Serratia marcescens; [21]) of the same substance?
A: 25 µg/mL

Q: What does the source list for “PRT944 (TSHPCFVSRPCLNGGTCHMLSRDTYECTCQVGFTGKECQ; listed as Homo sapiens)”?
A: MIC (Enterobacter cloacae; [13]): 50 µg/mL; MIC (E. coli BL21; [12]): 25 µg/mL; MIC (Aeromonas hydrophila; [14]): 12.5 µg/mL; MIC (Proteus mirabilis; [15]): 25 µg/mL; MIC (E. coli DH5α): 12.5 µg/mL; MIC (Citrobacter diversus; [16]): 50 µg/mL; MIC (Moraxella catarrhalis; [17]): 12.5 µg/mL; MIC (Klebsiella pneumonia; [18]): 100 µg/mL; MIC (Proteus vulgaris; [19]): 50 µg/mL; MIC (Pseudomonas aeruginosa; [20]): 50 µg/mL; MIC (Serratia marcescens; [21]): 12.5 µg/mL

Q: Which results are given for “PRT42 (CQCNGHSKCINQSICEKCENLTTGKHCETCISGFYGDPTNGGKCQP; listed as Homo sapiens)”?
A: MIC (μg/mL) E. cloacae (Enterobacter cloacae; [1]): 25 µg/mL; MIC (μg/mL) E. coli BL21 (E. coli BL21; [2]): 12.5 µg/mL; MIC (μg/mL) A. hydrophila (Aeromonas hydrophila; [3]): 12.5 µg/mL; MIC (μg/mL) P. mirabilis (Proteus mirabilis; [4]): 25 µg/mL; MIC (E. coli DH5α): 25 µg/mL; MIC (μg/mL) C. diversus (Citrobacter diversus; [5]): 25 µg/mL; MIC (μg/mL) M. catarrhalis (Moraxella catarrhalis; [6]): 12.5 µg/mL; MIC (μg/mL) K. pneumonia (Klebsiella pneumonia; [7]): 12.5 µg/mL; MIC (μg/mL) P. vulgaris (Proteus vulgaris; [8]): 100 µg/mL; MIC (μg/mL) P. aeruginosa (Pseudomonas aeruginosa; [9]): 25 µg/mL; MIC (μg/mL) S. marcescens (Serratia marcescens; [10]): 50 µg/mL

— patent US9833497B2, “Human originated EGF domain proteins and use of the same” (CHENGDU SOURCEBIO LIMITED-LIABILITY COMPANY, priority 2013, dated 2017)
